The results in this text go back to paper PMC10571957, “αV-Integrin-Dependent Inhibition of Glioblastoma Cell Migration, Invasion and Vasculogenic Mimicry by the uPAcyclin Decapeptide” (Cancers, 2023).

“And” between values parts separate entries of the source, which are not always exact repeats. Identical values can stand only once.

One data set concerns U251-MG cells. As to the kind of experiment: Boyden chamber Matrigel invasion, U251-MG. In kind it is cell-based, human. The conditions noted are these: for invasion, % of basal, average 2 expts: mean of 2 expts; for invasion, % of basal, average expt 1: mean of expt 1; for invasion, % of basal, average expt 2: mean of expt 2; for invasion, % of basal, T-test list: single replicates of both expts. The procedure: The migration and invasion assays were performed using Boyden chambers and 8 µm pore size PVP-free filters coated with 50 µg/mL of collagen type VI (Sigma), as previously described. For the invasion assays, collagen-coated filters were further coated with 50 µg/mL Matrigel^TM (Sigma). Briefly, 11 × 10^4 U87-MG, 4 × 10^4 U251-MG, or 4 × 10^4 U138-MG/sample were pre-treated for 40 min at 37 °C with the indicated effectors. Then, the cells were allowed to migrate for 3 h or to invade for 5 h at 37 °C toward 5% FBS in DMEM/0.1% BSA. At the end of both assays, the cells on the lower filter surface were fixed, stained with haematoxylin, and counted under an optical microscope (Zeiss Axiophot, Carl Zeiss, Milan, Italy) at 20× magnification. The migration and invasion experiments were conducted in triplicate for U87-MG and in duplicate for U251-MG and U138-MG. The migrated or invaded cells were reported as percentage of basal migration or invasion in the presence of DMEM/0.1% BSA, taken as 100%, and analyzed as reported in Section 2.11.
Figure 4 Effect of uPAcyclin on matrix invasion of U87-MG, U251-MG, and U138-MG GBM cells. Quantitative analysis of U87-MG (A), U251-MG (B), and U138-MG (C) invasion. A total of 11 × 10^4 U87-MG or […] U251-MG or U138-MG/sample were pre-treated for 40 min at 37 °C with uPAcyclin (100 nM, 1 µM), anti-αV polyclonal (anti-αV-Pclonal) or monoclonal (anti-αV MoAb) antibody, or anti-actin polyclonal antibody (anti-actin), and then assayed in Boyden chambers at 37 °C, either for basal (BSA) or FBS-dependent invasion (5% FBS) for 5 h at 37 °C. Data are expressed as in the legend to Figure 3. Results are expressed as percentages with respect to the basal invasion, considered as 100% (* p-value < 0.05; ** p-value < 0.005; *** p-value < 0.001).

Another data set concerns VE-cadherin. As to the kind of experiment: VE-cadherin expression in matrix-recovered U251-MG cells (Western blot). The data set is classed as cell-based, human. The conditions noted are these: 1 µM uPAcyclin, VM-forming U251-MG, 24 h. The text has this:
Whole cells were lysed as described, and resolved by SDS-PAGE, followed by Western blotting with PVDF membranes (Millipore, Burlington, MA, USA). The filters were probed with the following antibodies: polyclonal anti-VE Cadherin (Bioss Antibodies, Woburn, MA, USA), polyclonal anti-αV (Millipore), polyclonal anti-GAPDH (Elabscience, Houston, TX, USA), and polyclonal anti-actin (Sigma-Aldrich, St. Louis, MO, USA). Then, goat anti-rabbit IgG-HRP (Sigma) or goat anti-mouse IgG-HRP (Santa Cruz Biotechnology, Dallas, TX, USA) were employed as secondary antibodies. […] Films were imaged using the CanoScan 4400F (Canon, Tokyo, Japan) at 300 dpi, with the Adobe Photoshop Creative Suite 2 or CS2, and bands were quantified with the ImageJ 1.52a software (NIH, Bethesda, MD, USA).
To analyze matrix-embedded U251-MG cells, cells undergoing VM for 24 h were extracted using a 2× mixture of Trypsin, Accutase, and Dispase (1:1:1), acting for 45 min at 37 °C. […] The supernatants were collected and the protein concentration was quantified using the Bradford assay (Biorad, Hercules, CA, USA).
Figure 8 Vascular mimicry formation and VE-cadherin expression inhibited by uPAcyclin in U251-MG cells. […] (B) The quantitation of the branching point number is described in the legend to Figure 6B. […] The densitometric quantitation of VE-cadherin bands is shown (right panel) (* p-value < 0.05; *** p-value < 0.001).
In general terms: A western blot detects proteins with antibodies after separation by electrophoresis.

A further data set has as its system U87-MG cells. As to the kind of experiment: Cell viability/proliferation (Trypan blue, MTT), U87-MG. The data set is classed as cell-based, human. The following applies: 1 nM or 100 nM, 72–96 h. The method, then: (§1) Cell viability was tested in DMEM/10% FBS, in the presence of 1 nM or 100 nM uPAcyclin, either by Trypan blue exclusion or by thiazolyl blue tetrazolium bromide (MTT) assays, as specified in the figure legends. For the Trypan blue assay, 4 × 10^4 U87-MG, U251-MG, U138-MG, and C6 cells/sample were grown in 12-well plates, and followed for 24, 48 and 72 h. As a negative control, the cells were grown in a serum-free medium. Then, the cells were detached, stained with a 0.2% (w/v) Trypan blue solution, counted using a Burker chamber (T0 = 100%), and reported as number of viable cells/total.
(§2) For the MTT assay, 5 × 10^3 U87-MG and C6 cells/well were grown in 96-well plates for 24 h and tested as previously described. Briefly, MTT (Invitrogen-Life Technologies, Eugene, OR, USA) 5 mg/mL in a PBS solution was added to wells at a 10% final concentration, and incubated for 3 h at 37 °C, followed by the addition of stop solution (100 µL of DMSO/well) for 1 h at room temperature. Then, the optical densities were measured at 495 nm using the Microplate Reader (Synergy HT, Bio-Tek, Winoosky, VT, USA). The cell viability rate was calculated as a percentage by reporting the mean absorbance of treated groups to control groups, as follows: Cell viability rate (%) = (Atreated group/Acontrol group) × 100.

In a further data set the test system is C6 cells. Put plainly: Cell viability/proliferation (Trypan blue, MTT), C6. The conditions noted are these: C6, Trypan blue exclusion and MTT. In kind it is cell-based, rat. The method, then:
as §1, §2

[1] abbreviates: 100 nM, 5% FBS, 5 h, expt 1, duplicates.
The mark [2] stands for this setting: 100 nM, 5% FBS, 5 h, expt 2, duplicates.
Setting [3] is: 1 µM, 5% FBS, 5 h, expt 1, duplicates.
[4] abbreviates: 1 µM, 5% FBS, 5 h, expt 2, duplicates.

For “Ac-K^1P[ESPPEELK^10]-NH2 (sidechain bridge or staple) [uPAcyclin]”, the reduction in invasion in the data set on U251-MG cells (100 nM, U251-MG, 5% FBS, 5 h) is given as 50–60%. For the same substance, the invaded cell number/field in the data set on U251-MG cells (setting [1]) is 14 cell number/field; in the data set with U251-MG cells (setting [2]), 15 cell number/field and 14 cell number/field; with U251-MG cells (setting [3]), 11 cell number/field and 9 cell number/field; in the data set with U251-MG cells (setting [4]) it was 12 cell number/field and 10 cell number/field. Besides, the “invasion, % of basal” value in the data set on U251-MG cells (setting [1]) was 156%; with U251-MG cells (setting [2]) it was 136% and 127%; in the data set on U251-MG cells (setting [3]), 122% and 100%; with U251-MG cells (setting [4]), 109% and 91%. The “invasion, % of basal, average 2 expts” value with U251-MG cells (100 nM, 5% FBS, 5 h) was found to be 144%; with U251-MG cells (1 µM, 5% FBS, 5 h), 106%. The “invasion, % of basal, average expt 1” value with U251-MG cells (100 nM, 5% FBS, 5 h) was found to be 156%; in the data set with U251-MG cells (1 µM, 5% FBS, 5 h) it was 111%. Besides, the “invasion, % of basal, average expt 2” value in the data set on U251-MG cells (100 nM, 5% FBS, 5 h) came out at 132%; in the data set with U251-MG cells (1 µM, 5% FBS, 5 h), 100%. For the same substance, the “invasion, % of basal, T-test list” value was 156 and 136 and 127 in the data set on U251-MG cells (100 nM); 122 and 100 and 109 and 91 in the data set on U251-MG cells (1 µM). Besides, the “invasion, in words” value in the data set with U251-MG cells (1 µM, U251-MG, 5% FBS, 5 h) is on record as “reduced invasion to basal levels”. Besides, in the data set with VE-cadherin, the VE-cadherin expression result is “markedly reduced”. For the same substance, the proliferation/viability result in the data set with U87-MG cells is “unaffected by uPAcyclin, regardless of the concentration employed”; in the data set with C6 cells, “proliferation and viability are not affected by uPAcyclin”.
